In US7396837B2, “Antitumoral analogs of lamellarins” (Pharma Mar, S.A.U., priority 2002, dated 2008):
Where two headings read alike, the source gives them in different places.

Key:
SKOV-3 [1] = test: SRB colorimetric cell growth inhibition assay, SKOV-3; assay type: cell-based; conditions: Homo sapiens; for GI50: SK-OV-3, SKOV-3, GI=growth inhibition, read-out: GI50 SKOV-3; for IC (TGI): total growth inhibition (cytostatic effect), read-out: TGI SKOV-3
In short: (§1)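 Sulforhodamine B colorimetric assay of cell growth and viability, mean ± SD of triplicate wells. Parameters derived: GI (growth inhibition), TGI (total growth inhibition, cytostatic) and LC (cell killing, cytotoxic).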

[2] = SRB colorimetric cell growth inhibition assay, H-MEC-1; assay type: cell-based; conditions: human
In short: as §1

H-MEC-1 [3] = test: as above; assay type: cell-based; conditions: Homo sapiens, HMEC-1, H-MEC-1; for GI50: GI=growth inhibition, read-out: GI50 H-MEC-1; for IC (TGI): total growth inhibition (cytostatic effect), read-out: TGI H-MEC-1
In short: as §1

HeLa-APL = test: SRB colorimetric cell growth inhibition assay, HeLa-APL (aplidine resistant); assay type: cell-based; conditions: Homo sapiens; for GI50: read-out: GI50 HELA-APL; for CC50: read-out: LC50 HELA-APL; for IC (TGI): read-out: TGI HELA-APL
In short: (§2)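 Cells are kept under uninterrupted exposure to compound. Staining with sulforhodamine B then measures cell growth and viability. Triplicate data give mean ± SD, from which growth inhibition, total growth inhibition and lethal concentration values follow.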

human topoisomerase I = molecular target: T1, human topoisomerase I (Homo sapiens, UniProt P11387); test: Topoisomerase I cleavage of radiolabeled 117-bp DNA fragment; assay type: biochemical; conditions: 117-bp DNA restriction fragment 3' end-labeled
T1 sequence (P11387 1-765): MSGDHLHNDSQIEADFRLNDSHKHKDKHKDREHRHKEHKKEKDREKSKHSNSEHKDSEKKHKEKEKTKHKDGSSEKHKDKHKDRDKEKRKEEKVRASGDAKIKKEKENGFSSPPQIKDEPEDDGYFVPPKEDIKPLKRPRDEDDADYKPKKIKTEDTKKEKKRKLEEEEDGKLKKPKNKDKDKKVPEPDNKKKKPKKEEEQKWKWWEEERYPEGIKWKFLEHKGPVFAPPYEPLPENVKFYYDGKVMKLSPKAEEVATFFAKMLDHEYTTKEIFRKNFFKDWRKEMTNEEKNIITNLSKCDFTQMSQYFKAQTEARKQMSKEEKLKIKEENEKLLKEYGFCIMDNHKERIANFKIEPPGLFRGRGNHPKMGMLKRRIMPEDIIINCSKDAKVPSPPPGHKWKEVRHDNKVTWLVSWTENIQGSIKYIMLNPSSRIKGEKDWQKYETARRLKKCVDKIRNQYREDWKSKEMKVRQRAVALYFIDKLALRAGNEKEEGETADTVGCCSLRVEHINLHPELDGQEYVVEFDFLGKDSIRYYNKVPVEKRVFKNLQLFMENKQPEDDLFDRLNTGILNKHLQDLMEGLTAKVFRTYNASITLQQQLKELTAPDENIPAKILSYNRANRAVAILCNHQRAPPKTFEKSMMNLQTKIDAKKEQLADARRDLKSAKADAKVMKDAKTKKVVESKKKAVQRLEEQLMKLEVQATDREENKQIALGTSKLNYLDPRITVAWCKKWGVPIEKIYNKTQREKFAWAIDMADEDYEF
Description: Two assays, based on DNA relaxation and DNA cleavage (Bailly, C. DNA relaxation and cleavage assays to study topoisomerase I inhibitors. Methods Enzymol. 2001, 340, 610-623) were used evaluate the effects of the lamellarin analogs on the catalytic activity of human topoisomerase I.
A second assay, based on the cleavage of a radiolabeled DNA substrate by topoisomerase I, was used to confirm that the cationic lamellarin derivatives do effectively function as topoisomerase I poisons. A 117-bp DNA restriction fragment uniquely end-labeled at the 3′ end was subjected to cleavage by topoisomerase I in the presence of the different compounds and the resulting DNA cleavage products were resolved on sequencing-type polyacrylamide gels. The advantage of this assay is to detect the cleavage sites and to locate their positions with nucleotide resolution, providing thus information on the site selectivity of cleavage.

HeLa = test: SRB colorimetric cell growth inhibition assay, HeLa; assay type: cell-based; conditions: Homo sapiens, HeLa; for GI50: read-out: GI50 HELA; for CC50: read-out: LC50 HELA; for IC (TGI): read-out: TGI HELA
In short: as §2

[4] = SRB colorimetric cell growth inhibition assay, H-MEC-1; assay type: cell-based; conditions: human, H-MEC-1, LC=cell killing (cytotoxic effect), read-out: LC50 H-MEC-1
In short: (§3)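 SRB colorimetric readout of cell growth/viability in 96-well format. Means ± SD from triplicate wells; GI (growth inhibition), TGI (total growth inhibition, cytostatic) and LC (cell killing, cytotoxic) parameters derived.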

H-MEC-1 [5] = test: as above; assay type: cell-based; conditions: Homo sapiens, HMEC-1, H-MEC-1; for GI50: GI=growth inhibition; for IC (TGI): TGI=total growth inhibition (cytostatic effect), read-out: TGI H-MEC-1
In short: as §3

SKOV-3 [6] = test: SRB colorimetric cell growth inhibition assay, SKOV-3; assay type: cell-based; conditions: Homo sapiens; for GI50: SK-OV-3, SKOV-3, GI=growth inhibition, read-out: GI50 SKOV-3; for IC (TGI): TGI=total growth inhibition (cytostatic effect), read-out: TGI SKOV-3
In short: as §3

[7] = SK-OV-3, SKOV-3, cell killing (cytotoxic effect), read-out: LC50 SKOV-3
[8] = H-MEC-1, cell killing (cytotoxic effect), read-out: LC50 H-MEC-1
[9] = HELA-APL, cell killing (cytotoxic effect)
[10] = HELA-APL, total growth inhibition (cytostatic effect)
[11] = cell killing (cytotoxic effect)
[12] = total growth inhibition (cytostatic effect)
[13] = SK-OV-3, SKOV-3, LC=cell killing (cytotoxic effect), read-out: LC50 SKOV-3

## COc1cc(-c2c3n(c4c(=O)oc5cc(OC(=O)[C@H](NC(=O)OC(C)(C)C)C(C)C)c(OC)cc5c24)CCc2cc(OC(=O)[C@H](NC(=O)OC(C)(C)C)C(C)C)c(OC)cc2-3)ccc1OC(=O)[C@H](NC(=O)OC(C)(C)C)C(C)C [Compound 34]
SKOV-3 [1]
  GI50: 1270 nM
SKOV-3 [1]; [7]
  LC50 (concentration causing 50% net cell killing): 6650 nM
SKOV-3 [1]; SK-OV-3, SKOV-3
  IC (TGI): 2910 nM
[2]; [8]
  LC50 (concentration giving 50% net cell killing): 3440 nM
H-MEC-1 [3]
  GI50: 244 nM
  IC (TGI): 653 nM

## COc1cc(-c2c3n(c4c(=O)oc5cc(OC(=O)[C@@H](N)Cc6c[nH]c7ccccc67)c(OC)cc5c24)CCc2cc(OC(=O)[C@@H](N)Cc4c[nH]c5ccccc45)c(OC)cc2-3)ccc1OC(=O)[C@@H](N)Cc1c[nH]c2ccccc12 [Compound 24]
SKOV-3 [1]
  GI50: 1670 nM
SKOV-3 [1]; [7]
  LC50 (concentration causing 50% net cell killing): 6900 nM
SKOV-3 [1]; SK-OV-3, SKOV-3
  IC (TGI): 3390 nM
[2]; [8]
  LC50 (concentration giving 50% net cell killing): 5970 nM
H-MEC-1 [3]
  GI50: 806 nM
  IC (TGI): 2200 nM

## COc1cc(-c2c3c4cc(OC)c(OC(=O)CCCCCN)cc4oc(=O)c3n3ccc4cc(OC(=O)CCCCCN)c(OC)cc4c23)ccc1OC(=O)CCCCCN [Compound 169]
HeLa-APL; HELA-APL, GI=growth inhibition
  GI50: 70.5 nM
HeLa-APL; [9]
  CC50: 2970 nM
HeLa-APL; [10]
  IC (TGI): 530 nM
Human topoisomerase I
  stimulation of DNA cleavage by topoisomerase I (radiolabeled DNA substrate): stimulate DNA cleavage by the enzyme
HeLa; GI=growth inhibition
  GI50: 55.7 nM
HeLa; [11]
  CC50: 4420 nM
HeLa; [12]
  IC (TGI): 1390 nM

## COc1cc(-c2c3c4cc(OC)c(OC(=O)[C@@H](N)CC(C)C)cc4oc(=O)c3n3ccc4cc(OC(=O)[C@@H](N)CC(C)C)c(OC)cc4c23)ccc1OC(=O)[C@@H](N)CC(C)C [Compound 39]
[4]; H-MEC-1 cells
  CC50: 8470 nM
H-MEC-1 [5]
  GI50: 6.98 nM
  IC (TGI): 8470 nM
Human topoisomerase I; sequencing-type polyacrylamide gels
  topoisomerase I-mediated DNA cleavage sites / cleavage profile: Cleavage profiles identical to that of 3
SKOV-3 [6]
  GI50: 63.4 nM
SKOV-3 [6]; [13]
  CC50: 8470 nM
SKOV-3 [6]; SK-OV-3, SKOV-3
  IC (TGI): 8470 nM

## COc1cc(-c2c3n(c4c(=O)oc5cc(OC(=O)CCc6ccccc6)c(OC)cc5c24)CCc2cc(OC(=O)CCc4ccccc4)c(OC)cc2-3)ccc1OC(=O)CCc1ccccc1 [Compound 11]
HeLa-APL; HELA-APL, GI=growth inhibition
  GI50: 5230 nM
HeLa-APL; [9]
  CC50: 11100 nM
HeLa-APL; [10]
  IC (TGI): 11100 nM
HeLa; GI=growth inhibition
  GI50: 208 nM
HeLa; [11]
  CC50: 11100 nM
HeLa; [12]
  IC (TGI): 1350 nM

## COc1cc(-c2c3c4cc(OC)c(OC(=O)[C@H](C)N)cc4oc(=O)c3n3ccc4cc(OC(=O)[C@H](C)N)c(OC)cc4c23)ccc1OC(=O)[C@H](C)N [Compound 40]
SKOV-3 [6]
  GI50: 28.4 nM
SKOV-3 [6]; [13]
  CC50: 9480 nM
SKOV-3 [6]; SK-OV-3, SKOV-3
  IC (TGI): 107 nM

## COc1cc(-c2c3n(c4c(=O)oc5cc(O)c(OC)cc5c24)CCc2cc(O)c(OC)cc2-3)ccc1O [Compound 109]
[4]; H-MEC-1 cells
  CC50: 19900 nM
H-MEC-1 [5]
  GI50: 917 nM
  IC (TGI): 19900 nM
SKOV-3 [6]
  GI50: 2490 nM
SKOV-3 [6]; [13]
  CC50: 19900 nM
SKOV-3 [6]; SK-OV-3, SKOV-3
  IC (TGI): 11800 nM

## COc1cc(-c2c3n(c4c(=O)oc5cc(OC(=O)[C@H](N)C(C)C)c(OC)cc5c24)CCc2cc(OC(=O)[C@H](N)C(C)C)c(OC)cc2-3)ccc1OC(=O)[C@H](N)C(C)C [Compound 32]
SKOV-3 [1]
  GI50: 1860 nM
SKOV-3 [1]; SK-OV-3, read-out: LC50 SKOV-3
  LC50 (concentration causing 50% net cell killing): 7270 nM
SKOV-3 [1]; SK-OV-3, SKOV-3
  IC (TGI): 3670 nM
[2]
  LC50 (concentration giving 50% net cell killing): 5370 nM
H-MEC-1 [3]
  GI50: 276 nM
  IC (TGI): 723 nM

## COc1cc(-c2c3n(c4c(=O)oc5cc(OC(=O)[C@H](C)NC(=O)[C@H](C)NC(=O)OC(C)(C)C)c(OC)cc5c24)CCc2cc(OC(=O)[C@H](C)NC(=O)[C@H](C)NC(=O)OC(C)(C)C)c(OC)cc2-3)ccc1OC(=O)[C@H](C)NC(=O)[C@H](C)NC(=O)OC(C)(C)C [Compound 7]
HeLa-APL
  GI50: 1850 nM
  CC50: 7240 nM
  IC (TGI): 3660 nM
Human topoisomerase I
  stimulation of DNA cleavage by topoisomerase I (radiolabeled DNA substrate): stimulate DNA cleavage by the enzyme
HeLa
  GI50: 830 nM
  CC50: 4420 nM
  IC (TGI): 1910 nM

## COc1cc(-c2c3c4cc(OC)c(OC(=O)[C@H](N)C(C)C)cc4oc(=O)c3n3ccc4cc(OC(=O)[C@H](N)C(C)C)c(OC)cc4c23)ccc1OC(=O)[C@H](N)C(C)C [Compound 17]
HeLa-APL; HELA-APL, GI=growth inhibition
  GI50: 119 nM
HeLa-APL; [9]
  CC50: 1850 nM
HeLa-APL; [10]
  IC (TGI): 353 nM
Human topoisomerase I
  stimulation of DNA cleavage by topoisomerase I (radiolabeled DNA substrate): no difference between the (L) (36) and (D) (17) Val isomers
HeLa; GI=growth inhibition
  GI50: 109 nM
HeLa; [11]
  CC50: 878 nM
HeLa; [12]
  IC (TGI): 359 nM

## COc1cc(-c2c3c4cc(OC)c(OC(=O)[C@@H](NC(=O)OC(C)(C)C)C(C)C)cc4oc(=O)c3n3ccc4cc(OC(=O)[C@@H](NC(=O)OC(C)(C)C)C(C)C)c(OC)cc4c23)ccc1OC(=O)[C@@H](NC(=O)OC(C)(C)C)C(C)C [Compound 38]
[4]
  CC50: 9110 nM
SKOV-3 [1]
  GI50: 684 nM
SKOV-3 [1]; SK-OV-3, SKOV-3
  IC (TGI): 7420 nM
H-MEC-1 [3]
  GI50: 80.9 nM
  IC (TGI): 911 nM
SKOV-3 [6]; SK-OV-3, read-out: LC50 SKOV-3
  CC50: 9110 nM
